Laboratory results taken from PubChem BioAssay (NCI).
Values joined by “and” are separate entries in the source; they are usually repeats but may differ in a detail not shown here. Identical values can stand only once.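 The compound was tested at five concentrations on cells cultured in 96-well plates, with a 48-hour exposure period. GI50 is the concentration that inhibits growth by half. Definition used: TGI = concentration required for complete inhibition of growth.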

Assays:
Assay in all cases: inhibition of tumour cell growth, NCI panel, 48 h
786-0 renal = system: 786-0 renal
COLO 205 colon = system: COLO 205 colon
HCC-2998 colon = system: HCC-2998 colon
MDA-MB-435 = system: MDA-MB-435
NCI-H460 lung = system: NCI-H460 lung
OVCAR-3 ovarian = system: OVCAR-3 ovarian
OVCAR-5 ovarian = system: OVCAR-5 ovarian
RXF 393 renal = system: RXF 393 renal
SNB-19 CNS = system: SNB-19 CNS
UO-31 renal = system: UO-31 renal

| Structure (SMILES) | TGI (786-0 renal) [µM] | TGI (COLO 205 colon) | TGI (HCC-2998 colon) [µM] | TGI (MDA-MB-435) [µM] | TGI (NCI-H460 lung) [µM] | TGI (OVCAR-3 ovarian) | TGI (OVCAR-5 ovarian) [µM] | TGI (RXF 393 renal) [µM] | TGI (SNB-19 CNS) [µM] | TGI (UO-31 renal) | GI50 (786-0 renal) [µM] | GI50 (COLO 205 colon) [µM] | GI50 (HCC-2998 colon) [µM] | GI50 (MDA-MB-435) [µM] | GI50 (NCI-H460 lung) [µM] | GI50 (OVCAR-3 ovarian) [µM] | GI50 (OVCAR-5 ovarian) [µM] | GI50 (RXF 393 renal) [µM] | GI50 (SNB-19 CNS) [µM] | GI50 (UO-31 renal) [µM] |
| --- | --- | --- | --- | --- | --- | --- | --- | --- | --- | --- | --- | --- | --- | --- | --- | --- | --- | --- | --- | --- |
| CC(C)Cc1ccc(C(C)/C=C2\CCC(CN3CCCCC3)C2=O)cc1 (configuration not stated) | 3.38 | 15.6 µM | 17.7 | 28.2 | 66.1 | 11 µM | 31.6 | 5.73 | 19.6 | 23.7 µM | – | – | – | – | – | – | – | – | – | – |
| CCN(CC)CCC(=O)N1C/C(=C/c2ccccc2)C(=O)/C(=C\c2ccccc2)C1 | 9.78 | 6.74 µM | 1.94 | 5.5 | 11.4 | 11 µM | 9.76 | 2.99 | 6.63 | 3.78 µM | – | – | – | – | – | – | – | – | – | – |
| COc1ccc(-c2cc(-c3ccc(Cl)cc3)nc(SCCCCCCC(=O)NO)n2)cc1 | 3.26 | 11.5 µM | 8.37 | 11 | 8.9 | 6.85 µM | 12.5 | 3.69 | 23.6 | 3.05 µM | 1.16 | 1.88 | 2.01 | 2.12 | 1.29 | 1.49 | 1.66 | 1.27 | 1.67 | 0.758 |
| N#Cc1ccc(NC(=O)Nc2nc3ccc(OC(F)(F)F)cc3s2)cc1 | 6.35 | 3.9 µM | 6.04 | 6.79 | 7.81 | 14.3 µM | 16.1 | 7.39 | 13.9 | 7.92 µM | 2 | 1.68 | 1.28 | 1.42 | 0.605 | 0.577 | 4.28 | 1.87 | 1.5 | 1.67 |
| COC(=O)[C@H](Cc1cn(C)cn1)NC(=O)[C@@H](NC(=O)Nc1cc(C(F)(F)F)cc(C(F)(F)F)c1)C(C)(C)C | > 10 | > 10 µM | > 10 | > 10 | > 10 | > 10 µM | > 10 | > 10 | > 10 | > 10 µM | > 10 | > 10 | > 10 | > 10 | > 10 | > 10 | > 10 | > 10 | > 10 | > 10 |
| CCCCCCC(O)C(O)CCC(O)C1CCC(CCCCC(O)CC2=CC(C)OC2=O)O1 (configuration not stated) | 52.1 | 4.36 µM and 29.7 µM | 34.5 | 55.2 | 26.9 | 5.22 µM and 28.7 µM | 46.2 | 39.7 | 38.8 | 7.75 µM and 35.2 µM | 21.9 | 14.4 | – | – | 10.5 | 13.7 | 23.7 | 22.9 | 14.2 | 16 |
| O=S(=O)(NCCNc1cc(-c2cn(-c3ccccc3)nc2-c2cccc(O)c2)ccn1)c1ccc(Br)cc1 | 7.78 | 3.81 µM | 4.1 | 3.65 | 5.76 | 4.09 µM | 5.97 | 6.96 | 11.1 | 6.96 µM | 2.17 | 1.86 | 2.14 | 1.79 | 2.39 | 2.01 | 2.25 | 2.38 | 2.89 | 2.19 |
| Cc1ccc(-n2c3c(c4c(CN)c(O)ccc42)CCc2ccccc2C3=O)cc1 | 28.8 | 47 µM | 15.6 | 8.87 | 28.4 | 22.3 µM | 30.4 | 36.7 | 38.4 | 22.1 µM | 14.6 | 19.5 | 4.05 | 3 | 7.33 | 10.2 | 15.8 | 17 | 19.9 | 8.2 |
| Clc1nc(-c2ccccc2)nc(Cl)c1Cl | 22.8 | 23 µM | 20.5 | 26.8 | 42.7 | 21.7 µM | 30.4 | 18.9 | > 54.2 | > 57.5 µM | – | – | – | – | – | – | – | – | – | – |
| CCN(CC)CCOc1ccc(Cc2ccccc2)cc1 | > 100 | 31.5 µM | > 100 | 44.2 | 62.1 | > 100 µM | > 100 | 88.8 | > 100 | > 100 µM | 27.6 | 16.1 | 38.7 | 18.5 | 22.9 | 26.9 | 28.5 | 24.8 | 68.7 | 18.4 |
| CC(=Nc1ccccc1)C1=C(O)C(Cc2ccc(F)cc2)NC1=O (configuration not stated) | > 100 | 3.21 µM | 40.1 | 0.449 | > 100 | 1.2 µM | > 100 | 1.74 | > 100 | > 100 µM | 9.67 | 0.421 | 1.73 | 0.16 | 0.44 | 0.323 | 5.21 | 0.339 | 4.75 | 5.42 |
| CCCC(=O)Nc1c(I)cc(I)c(CC(CC)C(=O)O)c1I (configuration not stated) | > 100 | > 100 µM | > 100 | > 100 | > 100 | > 100 µM | > 100 | > 100 | > 100 | > 100 µM | > 100 | > 100 | > 100 | > 100 | > 100 | > 100 | > 100 | > 100 | > 100 | > 100 |
| COc1ccc(C[C@H]2NC[C@H](O)[C@H]2OC(C)=O)cc1 | 0.137 | 0.0256 µM | 0.0862 | 0.193 | 0.611 | 0.335 µM | 14.5 | 0.399 | 0.289 | 0.181 µM | – | – | – | – | – | – | – | – | – | – |
| CN1CCN(c2ccc(-c3cccc(CN4CCOCC4)c3)cc2NC(=O)c2c[nH]c(=O)cc2C(F)(F)F)CC1 | > 100 | > 100 µM | > 100 | > 100 | > 100 | > 100 µM | > 100 | > 100 | > 100 | > 100 µM | 41.8 | 17.8 | > 100 | 30.2 | 45.8 | 31.7 | > 100 | 23.1 | 94.7 | 49 |
| CCCCCCC/C=C1\CCC(CN(C)C)C1=O (configuration not stated) | 3.84 | 25.5 µM | 32.1 | 18.8 | 40.5 | 18 µM | 36.7 | 12.1 | 33.8 | 29.1 µM | – | – | – | – | – | – | – | – | – | – |
| COC1C(O)CC(OC2CC(OC3CC(O[C@@H]4C(=O)c5c(cc6cc(OC7CC(OC8CC(O)C(O)C(C)O8)C(O)C(C)O7)c(C)c(O)c6c5O)CC4[C@H](OC)[C@@H](O)C(C)=O)OC(C)C3O)OC(C)C2O)OC1C (some centres not stated) | > 33.3 | 0.0639 µM | 0.0258 | 7.07 | > 33.3 | 0.597 µM | > 33.3 | 0.364 | > 33.3 | 11.3 µM | 0.0219 | 0.0113 | 0.00349 | 0.0156 | 0.00673 | 0.0166 | 0.0309 | 0.0152 | 0.0099 | 0.0315 |
| CNC(=S)N(C1CCCCC1)C1CCCCC1 | > 100 | > 100 µM | > 100 | > 100 | > 100 | > 100 µM | > 100 | > 100 | > 100 | > 100 µM | – | – | – | – | – | – | – | – | – | – |
| O=C(Nc1ccc(-n2ccc3c(NC(=O)c4ccccc4)nccc32)cc1)c1ccc(N2CCOCC2)c(C(F)(F)F)c1 | – | 32.4 µM | > 53 | 41.8 | 1.35 | 9.89 µM | > 76.1 | 1.48 | > 81 | 19.5 µM | 0.364 | 0.364 | 0.6 | 0.102 | 0.0129 | 0.254 | 4.83 | 0.194 | 0.481 | 0.557 |
| NC(N)=NC(N)=Nc1ccc(S(N)(=O)=O)cc1 | > 100 | > 100 µM | > 100 | > 100 | > 100 | > 100 µM | > 100 | > 100 | > 100 | > 100 µM | – | – | – | – | – | – | – | – | – | – |
| Cc1ccccc1C[P+](c1ccccc1)(c1ccccc1)c1ccccc1 | > 100 | 3.28 µM | 24.2 | 21.3 | 12.9 | > 100 µM | > 100 | 37.1 | > 100 | > 100 µM | 4.23 | 1.16 | 0.888 | 0.938 | 1.73 | 1 | 2.86 | 4.5 | 2.07 | 40.5 |
| Cc1cc(C)c(O)c(CNCCCNCc2cc(C)cc(C)c2O)c1 | 18.7 | 3.89 µM | 2.82 | 2.93 | 4.65 | 15 µM | 19.5 | 4.24 | 15.1 | 12.1 µM | 4.69 | 1.89 | 1.45 | 1.54 | 2.13 | 3.82 | 4.23 | 1.93 | 3.88 | 2.22 |
| COC(=O)CCCNC(=O)C(=O)c1c(O)c(O)c(C(C)C)c2cc(C)c(-c3c(C)cc4c(C(C)C)c(O)c(O)c(C(=O)C(=O)NCCCC(=O)OC)c4c3O)c(O)c12 | 7.54 | 2.03 µM | 7.98 | 5.85 | 3.74 | 3.46 µM | > 32.5 | 5 | 7.1 | 4.05 µM | 1.07 | 0.382 | 0.679 | 1.06 | 0.345 | 0.32 | 0.781 | 0.651 | 0.167 | 0.558 |
| COCC(=O)NC/C=C/c1ccc2ncnc(Nc3ccc(Oc4ccc(C)nc4)c(C)c3)c2c1 | 42 | 25.6 µM | 39.7 | 29.9 | 22.3 | 28 µM | 35.9 | 36.3 | > 100 | 35.9 µM | 15.1 | 6 | 20.1 | 11.4 | 4.74 | 10.4 | 12.7 | 13.9 | 18.4 | 7.8 |
| CCCc1n(Cc2ccc3ccccc3n2)cc[n+]1Cc1ccc2ccccc2c1 | 10.2 | 1.34 µM | 2.33 | 2.17 | 10.6 | 1.96 µM | 12.5 | 14.6 | 11.4 | 25.3 µM | 2.93 | 0.319 | 0.564 | 0.443 | 0.658 | 0.452 | 2.39 | 2.98 | 0.551 | 12 |
| CN1CCN(Cc2ccc(NC(=O)c3cccc(C#Cc4c(N)ncc5ccc(F)cc45)c3)cc2C(F)(F)F)CC1 | 1.74 | 1.66 µM | 1.84 | 1.47 | 1.72 | 1.8 µM | 1.76 | 1.4 | 1.65 | 1.27 µM | 0.966 | 0.737 | 0.969 | 0.763 | 0.885 | 0.853 | 0.849 | 0.697 | 0.916 | 0.533 |
| C[C@@H]1OC(=O)NN=C1c1ccc(-c2ccc(F)cc2)c(C(F)(F)F)c1 | 30.3 | 28 µM | 23.1 | 13.9 | 25.6 | 20.3 µM | 21.6 | 7.62 | 23.3 | 20.9 µM | 13.7 | 11.8 | 10.6 | 3.57 | 11.7 | 6.01 | 5.02 | 1.58 | 11 | 7.79 |
| O=C1c2ccccc2-c2c1c1ccc([N+](=O)[O-])cc1c(=O)n2CCCn1ccnc1 | 0.894 | > 38.5 µM | 5.57 | 5.98 | 7.98 | 2.12 µM | 4.25 | 2.43 | > 34.4 | 2.62 µM | 0.218 | 4.57 | 2 | 1.55 | < 0.0275 | 0.334 | 0.984 | 0.16 | 0.358 | 0.724 |
